From ChEMBL document CHEMBL1142871, “Flipped out: structure-guided design of selective pyrazolylpyrrole ERK inhibitors” (J Med Chem, 2007)

What was measured:
[1] = molecular target: Mitogen-activated protein kinase 1 (Homo sapiens, UniProt P28482); assay: Inhibition of ERK2 by spectrophotometric coupled-enzyme assay
[2] = molecular target: Mitogen-activated protein kinase 10 (Homo sapiens, UniProt P53779); assay: Inhibition of JNK3 at 10 nM by spectrophotometric coupled-enzyme assay
[3] = molecular target: Dual specificity mitogen-activated protein kinase kinase 1 (Homo sapiens, UniProt Q02750); assay: Inhibition of MEK1
[4] = molecular target: T1, Receptor-type tyrosine-protein kinase FLT3 (Homo sapiens, UniProt P36888); assay: Inhibition of FLT3 kinase
T1 sequence (P36888 whole entry): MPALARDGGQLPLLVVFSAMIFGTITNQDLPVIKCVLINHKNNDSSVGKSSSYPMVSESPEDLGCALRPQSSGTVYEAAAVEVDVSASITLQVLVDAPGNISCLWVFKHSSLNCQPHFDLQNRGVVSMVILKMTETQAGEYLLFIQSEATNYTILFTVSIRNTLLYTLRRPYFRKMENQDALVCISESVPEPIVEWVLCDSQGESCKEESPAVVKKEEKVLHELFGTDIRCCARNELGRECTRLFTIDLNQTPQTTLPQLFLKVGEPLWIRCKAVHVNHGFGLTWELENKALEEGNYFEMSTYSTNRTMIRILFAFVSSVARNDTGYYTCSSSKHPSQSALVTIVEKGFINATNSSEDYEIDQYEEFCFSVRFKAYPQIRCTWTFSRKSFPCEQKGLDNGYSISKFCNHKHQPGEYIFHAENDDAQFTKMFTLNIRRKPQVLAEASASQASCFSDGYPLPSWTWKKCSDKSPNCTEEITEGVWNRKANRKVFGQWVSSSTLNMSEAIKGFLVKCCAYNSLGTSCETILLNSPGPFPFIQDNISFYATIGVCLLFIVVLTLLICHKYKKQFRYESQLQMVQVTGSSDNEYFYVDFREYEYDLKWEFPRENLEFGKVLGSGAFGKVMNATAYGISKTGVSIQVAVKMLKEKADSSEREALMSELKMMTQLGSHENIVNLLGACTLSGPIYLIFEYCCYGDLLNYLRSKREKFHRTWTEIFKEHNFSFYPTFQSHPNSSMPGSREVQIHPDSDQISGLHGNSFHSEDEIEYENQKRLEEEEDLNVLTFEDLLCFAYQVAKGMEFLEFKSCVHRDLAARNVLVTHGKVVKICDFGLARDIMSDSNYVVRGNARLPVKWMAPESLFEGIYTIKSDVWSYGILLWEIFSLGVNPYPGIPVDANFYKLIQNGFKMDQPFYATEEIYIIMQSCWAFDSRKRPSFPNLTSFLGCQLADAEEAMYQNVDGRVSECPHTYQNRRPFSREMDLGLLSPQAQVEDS

COLO 205 = assay: Antiproliferative activity against Colo205 cells measured by [3H]thymidine incorporation after 48 hrs; type: functional, cell-based; conditions: Homo sapiens
[5] = molecular target: Vascular endothelial growth factor receptor 2 (Homo sapiens, UniProt P35968); assay: Inhibition of KDR kinase
[6] = molecular target: cAMP-dependent protein kinase (PKA) (Homo sapiens, UniProt P22694+P17612+P22612); assay: Inhibition of PKA; type: protein assay
[7] = molecular target: Glycogen synthase kinase-3 (Homo sapiens, UniProt P49840+P49841); assay: Inhibition of GSK3; type: protein assay
[8] = molecular target: Cyclin-dependent kinase 2 (Homo sapiens, UniProt P24941); assay: Inhibition of CDK2
Aurora kinase A = molecular target: T2, Aurora kinase A (Homo sapiens, UniProt O14965); assay: Inhibition of AURA kinase
T2 sequence (O14965 whole entry): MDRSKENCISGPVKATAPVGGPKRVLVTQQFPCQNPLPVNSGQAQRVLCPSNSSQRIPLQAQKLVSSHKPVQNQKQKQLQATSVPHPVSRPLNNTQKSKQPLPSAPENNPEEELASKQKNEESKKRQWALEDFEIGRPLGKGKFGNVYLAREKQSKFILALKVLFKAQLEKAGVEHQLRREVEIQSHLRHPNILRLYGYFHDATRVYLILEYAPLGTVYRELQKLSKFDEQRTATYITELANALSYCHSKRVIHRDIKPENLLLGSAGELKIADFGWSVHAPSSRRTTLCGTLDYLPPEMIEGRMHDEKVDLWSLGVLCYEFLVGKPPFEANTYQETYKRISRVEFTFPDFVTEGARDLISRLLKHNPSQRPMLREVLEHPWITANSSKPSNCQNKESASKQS

[9] = molecular target: Mitogen-activated protein kinase 14 (Homo sapiens, UniProt Q16539); assay: Inhibition of p38 alpha kinase
[10] = molecular target: RAC-gamma serine/threonine-protein kinase (Homo sapiens, UniProt Q9Y243); assay: Inhibition of AKT3 kinase
[11] = molecular target: Proto-oncogene tyrosine-protein kinase Src (Homo sapiens, UniProt P12931); assay: Inhibition of SRC kinase
Sequence of Proto-oncogene tyrosine-protein kinase Src (P12931 2-536 limits assumed): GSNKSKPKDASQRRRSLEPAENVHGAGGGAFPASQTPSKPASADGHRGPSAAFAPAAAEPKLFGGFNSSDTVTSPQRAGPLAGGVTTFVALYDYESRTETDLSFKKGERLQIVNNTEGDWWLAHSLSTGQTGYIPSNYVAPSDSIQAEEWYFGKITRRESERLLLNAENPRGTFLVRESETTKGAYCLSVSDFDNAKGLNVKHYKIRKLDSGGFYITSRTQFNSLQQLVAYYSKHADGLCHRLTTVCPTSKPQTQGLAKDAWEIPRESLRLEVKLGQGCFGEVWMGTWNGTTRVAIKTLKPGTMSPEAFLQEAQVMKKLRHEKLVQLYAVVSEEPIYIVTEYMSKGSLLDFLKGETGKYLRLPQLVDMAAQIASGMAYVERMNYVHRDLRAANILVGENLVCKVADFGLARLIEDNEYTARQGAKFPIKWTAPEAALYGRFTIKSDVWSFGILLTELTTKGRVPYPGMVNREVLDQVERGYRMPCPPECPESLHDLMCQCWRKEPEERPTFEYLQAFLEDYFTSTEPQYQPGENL

Sequence of Mitogen-activated protein kinase 10 (P53779 whole entry): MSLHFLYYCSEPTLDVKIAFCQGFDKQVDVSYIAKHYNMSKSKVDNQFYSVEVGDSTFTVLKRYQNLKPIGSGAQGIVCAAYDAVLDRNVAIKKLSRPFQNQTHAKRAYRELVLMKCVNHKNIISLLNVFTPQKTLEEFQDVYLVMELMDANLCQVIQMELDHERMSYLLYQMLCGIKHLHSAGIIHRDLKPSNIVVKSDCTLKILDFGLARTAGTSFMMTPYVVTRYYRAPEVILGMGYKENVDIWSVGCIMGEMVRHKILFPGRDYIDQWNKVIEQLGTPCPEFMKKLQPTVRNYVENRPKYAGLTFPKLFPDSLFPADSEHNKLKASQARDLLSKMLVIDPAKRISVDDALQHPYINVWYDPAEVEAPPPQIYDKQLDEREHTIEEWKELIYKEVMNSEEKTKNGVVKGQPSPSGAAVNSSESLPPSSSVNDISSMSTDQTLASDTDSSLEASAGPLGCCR
Sequence of Mitogen-activated protein kinase 1 (P28482 whole entry): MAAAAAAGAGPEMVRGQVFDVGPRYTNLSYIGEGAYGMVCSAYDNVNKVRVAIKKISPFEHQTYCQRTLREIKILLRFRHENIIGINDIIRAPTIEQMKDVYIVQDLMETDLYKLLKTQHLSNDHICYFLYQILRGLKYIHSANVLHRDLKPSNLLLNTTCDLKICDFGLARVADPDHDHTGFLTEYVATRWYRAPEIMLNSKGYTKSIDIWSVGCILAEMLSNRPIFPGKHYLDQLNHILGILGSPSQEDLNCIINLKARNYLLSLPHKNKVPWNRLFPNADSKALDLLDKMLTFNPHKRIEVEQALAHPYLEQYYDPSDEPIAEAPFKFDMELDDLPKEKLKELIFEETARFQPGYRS
Sequence of Mitogen-activated protein kinase 14 (Q16539 whole entry): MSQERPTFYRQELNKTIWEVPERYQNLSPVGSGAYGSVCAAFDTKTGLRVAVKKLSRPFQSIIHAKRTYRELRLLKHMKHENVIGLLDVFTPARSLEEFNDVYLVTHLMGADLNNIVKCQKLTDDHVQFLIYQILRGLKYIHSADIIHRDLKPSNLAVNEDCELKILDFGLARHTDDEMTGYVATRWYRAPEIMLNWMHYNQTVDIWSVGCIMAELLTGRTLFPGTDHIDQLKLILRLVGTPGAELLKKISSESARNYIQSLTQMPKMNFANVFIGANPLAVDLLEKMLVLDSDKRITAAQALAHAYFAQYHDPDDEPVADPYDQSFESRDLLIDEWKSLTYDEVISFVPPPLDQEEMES
Sequence of RAC-gamma serine/threonine-protein kinase (Q9Y243 whole entry): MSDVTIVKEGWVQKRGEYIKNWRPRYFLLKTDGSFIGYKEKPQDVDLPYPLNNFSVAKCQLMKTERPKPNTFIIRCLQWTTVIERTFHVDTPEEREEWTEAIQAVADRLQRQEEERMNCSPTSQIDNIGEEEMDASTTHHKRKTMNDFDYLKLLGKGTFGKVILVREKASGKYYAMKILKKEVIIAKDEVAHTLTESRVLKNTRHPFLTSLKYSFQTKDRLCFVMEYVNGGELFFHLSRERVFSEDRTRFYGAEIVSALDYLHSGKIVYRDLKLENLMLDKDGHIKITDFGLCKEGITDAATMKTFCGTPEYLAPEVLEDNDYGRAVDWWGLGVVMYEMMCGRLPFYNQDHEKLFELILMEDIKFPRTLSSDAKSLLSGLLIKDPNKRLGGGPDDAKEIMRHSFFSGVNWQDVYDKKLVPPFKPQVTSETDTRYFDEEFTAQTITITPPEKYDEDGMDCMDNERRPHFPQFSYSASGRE
Sequence of Vascular endothelial growth factor receptor 2 (P35968 whole entry): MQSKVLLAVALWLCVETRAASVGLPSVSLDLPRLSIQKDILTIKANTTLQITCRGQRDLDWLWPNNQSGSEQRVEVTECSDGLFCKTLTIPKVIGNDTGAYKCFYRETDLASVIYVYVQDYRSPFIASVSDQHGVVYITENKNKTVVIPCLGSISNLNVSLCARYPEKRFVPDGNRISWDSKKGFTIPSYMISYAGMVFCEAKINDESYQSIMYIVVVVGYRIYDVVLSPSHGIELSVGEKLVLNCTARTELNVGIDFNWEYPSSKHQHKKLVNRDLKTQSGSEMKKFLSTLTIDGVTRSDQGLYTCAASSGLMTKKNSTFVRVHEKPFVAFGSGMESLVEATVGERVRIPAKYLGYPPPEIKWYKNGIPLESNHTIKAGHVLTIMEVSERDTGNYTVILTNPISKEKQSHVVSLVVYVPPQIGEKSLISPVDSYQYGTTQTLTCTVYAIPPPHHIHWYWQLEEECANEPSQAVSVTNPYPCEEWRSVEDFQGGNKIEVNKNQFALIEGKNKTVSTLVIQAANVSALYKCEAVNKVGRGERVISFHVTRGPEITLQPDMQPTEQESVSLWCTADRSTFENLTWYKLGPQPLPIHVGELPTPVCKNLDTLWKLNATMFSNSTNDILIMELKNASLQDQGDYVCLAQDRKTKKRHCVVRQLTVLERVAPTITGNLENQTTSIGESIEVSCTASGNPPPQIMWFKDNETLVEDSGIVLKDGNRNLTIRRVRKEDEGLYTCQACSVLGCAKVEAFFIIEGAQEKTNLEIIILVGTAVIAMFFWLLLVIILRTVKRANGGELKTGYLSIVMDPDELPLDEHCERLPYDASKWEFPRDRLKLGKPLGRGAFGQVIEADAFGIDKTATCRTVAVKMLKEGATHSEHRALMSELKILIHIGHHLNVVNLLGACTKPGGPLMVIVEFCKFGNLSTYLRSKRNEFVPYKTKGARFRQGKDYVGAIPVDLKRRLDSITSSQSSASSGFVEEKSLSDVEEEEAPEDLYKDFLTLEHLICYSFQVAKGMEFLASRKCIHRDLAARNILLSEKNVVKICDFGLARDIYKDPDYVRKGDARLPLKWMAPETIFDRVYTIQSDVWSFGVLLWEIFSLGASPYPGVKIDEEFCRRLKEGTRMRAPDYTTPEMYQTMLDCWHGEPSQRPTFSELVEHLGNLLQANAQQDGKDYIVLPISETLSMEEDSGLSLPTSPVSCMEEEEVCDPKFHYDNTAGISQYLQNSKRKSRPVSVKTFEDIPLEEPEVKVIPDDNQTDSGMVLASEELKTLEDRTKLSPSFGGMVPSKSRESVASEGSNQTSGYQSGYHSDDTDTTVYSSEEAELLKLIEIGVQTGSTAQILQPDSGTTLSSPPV
Sequence of Dual specificity mitogen-activated protein kinase kinase 1 (Q02750 whole entry): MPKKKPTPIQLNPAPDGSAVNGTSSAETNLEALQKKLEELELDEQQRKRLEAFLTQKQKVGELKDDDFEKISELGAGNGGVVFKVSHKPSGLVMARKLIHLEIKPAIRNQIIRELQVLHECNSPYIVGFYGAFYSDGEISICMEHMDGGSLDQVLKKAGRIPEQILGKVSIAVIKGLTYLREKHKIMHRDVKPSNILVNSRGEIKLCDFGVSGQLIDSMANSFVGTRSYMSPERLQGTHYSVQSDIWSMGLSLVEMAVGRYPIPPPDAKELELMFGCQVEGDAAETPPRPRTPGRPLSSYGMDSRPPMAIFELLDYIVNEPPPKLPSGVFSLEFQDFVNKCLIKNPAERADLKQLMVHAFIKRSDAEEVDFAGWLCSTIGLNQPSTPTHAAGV

Row | SMILES | Ki [1] [nM] | Ki [2] [nM] | other results
1 | O=C(N[C@H](C(=O)O)c1ccccc1)c1cc(-c2n[nH]cc2-c2cccc(Cl)c2)c[nH]1 | > 5000 | > 4000 | –
2 | O=C(NCC1CCCO1)c1cc(-c2[nH]ncc2-c2cccc(Cl)c2)c[nH]1 (stereo not given) | – | 2700 | –
3 | O=C(NC(CO)c1ccc(F)c(F)c1)c1cc(-c2n[nH]cc2-c2cccc(Cl)c2)c[nH]1 (stereo not given) | 22 | 2800 | –
4 | CN(C)C(=O)c1cc(-c2n[nH]cc2-c2ccccc2)c[nH]1 | – | > 4000 | –
5 | O=C(NC(CO)c1cccc(F)c1)c1cc(-c2[nH]ncc2-c2cccc(Cl)c2)c[nH]1 (stereo not given) | 24 | 3000 | –
6 | O=C(NC(CO)c1ccccc1F)c1cc(-c2[nH]ncc2-c2cccc(Cl)c2)c[nH]1 (stereo not given) | 240 | 3100 | –
7 | O=C(NC(CO)c1ccc(F)c(Cl)c1)c1cc(-c2[nH]ncc2-c2cccc(Cl)c2)c[nH]1 (stereo not given) | 6 | – | –
8 | CNC(=O)[C@@H](NC(=O)c1cc(-c2[nH]ncc2-c2cccc(Cl)c2)c[nH]1)c1ccccc1 | 2300 | 3900 | –
9 | O=C(c1cc(-c2[nH]ncc2-c2cccc(Cl)c2)c[nH]1)N1CCCC1 | 200 | 1800 | –
10 | O=C(N[C@H](CO)c1ccccc1)c1cc(-c2[nH]ncc2-c2cccc(Cl)c2)c[nH]1 | – | 2800 | –
11 | O=C(NC1c2ccccc2CC1O)c1cc(-c2[nH]ncc2-c2cccc(Cl)c2)c[nH]1 (stereo not given) | 4000 | 3200 | –
12 | O=C(NOCc1ccccc1)c1cc(-c2[nH]ncc2-c2cccc(Cl)c2)c[nH]1 | – | 2900 | –
13 | O=C(N[C@@H](CO)c1ccc(F)c(Cl)c1)c1cc(-c2n[nH]cc2-c2cccc(Cl)c2)c[nH]1 | 150 | > 4000 | –
14 | NC(=O)[C@@H](NC(=O)c1cc(-c2[nH]ncc2-c2cccc(Cl)c2)c[nH]1)c1ccccc1 | 510 | 3300 | –
15 | O=C(NC(CO)c1cc(Cl)cc(Cl)c1)c1cc(-c2n[nH]cc2-c2cccc(Cl)c2)c[nH]1 (stereo not given) | 7 | 3400 | –
16 | C[C@H](NC(=O)c1cc(-c2n[nH]cc2-c2cccc(Cl)c2)c[nH]1)c1ccccc1 | 660 | > 4000 | –
17 | O=C(NCc1ccc(F)c(F)c1)c1cc(-c2n[nH]cc2-c2cccc(Cl)c2)c[nH]1 | 40 | 790 | –
18 | O=C(NC(CO)c1ccc(C(F)(F)F)cc1)c1cc(-c2n[nH]cc2-c2cccc(Cl)c2)c[nH]1 (stereo not given) | 44 | 2700 | –
19 | COc1ccc(CNC(=O)c2cc(-c3n[nH]cc3-c3cccc(Cl)c3)c[nH]2)cc1 | 490 | 840 | –
20 | O=C(NCCc1cccnc1)c1cc(-c2[nH]ncc2-c2cccc(Cl)c2)c[nH]1 | 330 | > 4000 | –
21 | C[C@@H](NC(=O)c1cc(-c2n[nH]cc2-c2cccc(Cl)c2)c[nH]1)c1ccccc1 | 100 | 3100 | –
22 | CCN1CCCC1CNC(=O)c1cc(-c2n[nH]cc2-c2cccc(Cl)c2)c[nH]1 (stereo not given) | > 10000 | > 4000 | –
23 | CN(Cc1ccccc1)C(=O)c1cc(-c2[nH]ncc2-c2cccc(Cl)c2)c[nH]1 | 440 | > 4000 | –
24 | O=C(NC(CO)c1ccc(F)cc1)c1cc(-c2n[nH]cc2-c2cccc(Cl)c2)c[nH]1 (stereo not given) | 63 | > 4000 | –
25 | CCN(C)C(=O)c1cc(-c2n[nH]cc2-c2cccc(Cl)c2)c[nH]1 | – | > 4000 | –
26 | O=C(NC(CO)c1ccc(Cl)cc1)c1cc(-c2n[nH]cc2-c2cccc(Cl)c2)c[nH]1 (stereo not given) | 14 | 2500 | –
27 | O=C(c1cc(-c2[nH]ncc2-c2cccc(Cl)c2)c[nH]1)N1CCc2ccccc2C1 | 510 | > 4000 | –
28 | O=C(N[C@H](CO)c1ccc(F)c(Cl)c1)c1cc(-c2n[nH]cc2-c2cccc(Cl)c2)c[nH]1 | – | > 4000 | Ki [3]: > 4000 nM; Ki [4]: 750 nM; IC50 (COLO 205): 540 nM; Ki [5]: 3900 nM; Ki [6]: 390 nM; Ki [7]: 3300 nM; Ki [8]: > 4000 nM; Ki (Aurora kinase A): > 4000 nM; Ki [9]: > 4000 nM; Ki [10]: 1800 nM; Ki [11]: 1100 nM
